Here are results for 16 molecules from US20250215029A1 (Recludix Pharma, Inc., priority 2022, published 2025).

Assay [1] has as its target T1, Recombinant STAT3 protein (STAT3 (G127-I722)) (Homo sapiens, UniProt P40763).
T1 construct: Recombinant STAT3 protein (STAT3 (G127-I722))
As to the kind of experiment: STAT3 Fluorescence Polarization (FP) Assay. Format: binding. The note with it: probe 5-FAM-GpYLPQTV-NH2 2 nM, 45-minute incubation. Put shortly: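 Displacement of a fluorescent phosphotyrosine peptide (5-FAM-GpYLPQTV-NH2, 2 nM) from 25 nM recombinant STAT3 G127-I722 was monitored by FP after 45 min at room temperature.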
For orientation: Fluorescence polarisation rises when a labelled molecule tumbles more slowly, as on binding a larger partner.

The target in assay [2] is T2, Recombinant STAT6 protein (STAT6 (W123-T658)) (Homo sapiens, UniProt P42226).
T2 construct: Recombinant STAT6 protein (STAT6 (W123-T658))
T2 sequence (P42226 123-658): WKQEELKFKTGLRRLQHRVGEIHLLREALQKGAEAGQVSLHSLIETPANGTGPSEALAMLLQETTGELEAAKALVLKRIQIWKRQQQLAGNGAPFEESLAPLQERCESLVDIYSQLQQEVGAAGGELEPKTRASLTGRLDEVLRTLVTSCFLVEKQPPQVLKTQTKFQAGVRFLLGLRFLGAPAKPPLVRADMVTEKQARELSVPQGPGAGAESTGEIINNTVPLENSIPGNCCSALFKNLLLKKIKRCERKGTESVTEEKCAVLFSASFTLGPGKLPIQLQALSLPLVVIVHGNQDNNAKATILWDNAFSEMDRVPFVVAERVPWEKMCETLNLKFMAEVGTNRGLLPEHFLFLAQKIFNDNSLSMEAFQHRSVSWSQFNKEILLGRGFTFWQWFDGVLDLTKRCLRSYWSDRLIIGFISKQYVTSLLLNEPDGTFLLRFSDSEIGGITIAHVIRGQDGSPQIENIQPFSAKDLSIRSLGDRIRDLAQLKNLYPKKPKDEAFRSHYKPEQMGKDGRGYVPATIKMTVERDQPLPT
Briefly: STAT6 Fluorescence Polarization (FP) Assay. Format: binding. The settings on record: probe 5-FAM-Ap[…]-NH2 2 nM, 45-minute incubation. The essentials: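 Displacement of a fluorescent phosphotyrosine peptide (2 nM) from 250 nM STAT6 (W123-T658) is measured by polarization after a 45-minute room-temperature incubation. Compounds are titrated serially at 1% DMSO, and IC50 values derive from regression of mP on log concentration.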

Where [3] appears, read: STAT3 (G127-I722) 25 nM, read-out: STAT3 (FP assay IC50 class).
Where [4] appears, read: STAT6 (W123-T658) 250 nM, read-out: STAT6 (FP assay IC50 class).

The structures appear in SMILES notation. Like-named read-outs stand apart in the source and are kept apart here. Some results are limits rather than exact numbers.

T1 sequence (P40763 127-722): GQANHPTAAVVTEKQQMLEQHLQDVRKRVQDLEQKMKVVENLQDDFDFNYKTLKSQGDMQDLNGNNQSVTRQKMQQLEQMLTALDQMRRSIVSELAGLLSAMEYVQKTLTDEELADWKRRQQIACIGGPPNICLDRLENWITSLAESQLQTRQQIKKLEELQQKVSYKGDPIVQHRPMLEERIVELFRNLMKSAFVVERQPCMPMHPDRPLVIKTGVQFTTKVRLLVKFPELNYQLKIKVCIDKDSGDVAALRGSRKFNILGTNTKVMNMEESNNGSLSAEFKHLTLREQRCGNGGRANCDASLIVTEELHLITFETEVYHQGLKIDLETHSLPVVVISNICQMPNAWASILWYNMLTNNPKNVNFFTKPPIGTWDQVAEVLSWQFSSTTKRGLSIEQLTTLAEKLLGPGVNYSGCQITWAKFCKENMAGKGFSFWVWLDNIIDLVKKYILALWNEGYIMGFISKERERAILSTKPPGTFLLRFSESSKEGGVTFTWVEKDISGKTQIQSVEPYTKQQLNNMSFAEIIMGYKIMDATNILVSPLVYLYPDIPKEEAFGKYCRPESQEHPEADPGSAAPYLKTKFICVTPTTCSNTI

Broadly, the IC50 is the concentration needed to halve the response being measured. As to `O=C(CCC(F)(F)F)NC1(c2ccccn2)CN(C(=O)[C@@H]2CC[C@@H]3CCCC[C@H](NC(=O)c4cc5cc(C(F)(F)P(=O)(O)O)ccc5s4)C(=O)N32)C1` [Compound 124, (difluoro(2-(((3S,6S, 10aS)-5-oxo-3-(3-(pyridin-2-yl)-3-(4,4,4-trifluoro-butanamido)azetidine-1-carbonyl)decahydro-pyrrolo [1,2-a]azocin-6-yl)carbamoyl)benzo[b]thiophen-5-yl)methyl) phosphonic acid], the half-maximal inhibitory concentration (IC50) in assay [1] (STAT3 25 nM, read-out: STAT3 (FP assay IC50)) is under 0.1 µM; in assay [2] (STAT6 250 nM, read-out: STAT6 (FP assay IC50)), 3 to 30 µM.
Regarding `O=C(N[C@H]1CCC[C@H]2CC[C@@H](C(=O)N3CCn4cncc4C3)N2C1=O)c1cc2cc(C(F)(F)P(=O)(O)O)ccc2s1` [Compound 203, (difluoro(2-(((3S,6S,9aS)-5-oxo-3-(5,6,7,8-tetrahydroimidazo[1,5-a]pyrazine-7-carbonyl)octahydro-1H-pyrrolo[1,2-a]azepin-6-yl)carbamoyl)benzo[b]thiophen-5-yl)methyl)phosphonic acid], the IC50 was 0.1 to 1 µM in assay [1] (setting [3]) and 0.3 to 3 µM in assay [2] (setting [4]).
Take `CCc1ccncc1C1CN(C(=O)[C@@H]2CC[C@@H]3CCC[C@H](NC(=O)c4cc5cc(C(F)P(=O)(O)O)ccc5s4)C(=O)N32)C1` (stereo partly drawn) [Compound 205, ((2-(((3S,6S,9aS)-3-(3-(4-ethylpyridin-3-yl)azetidine-1-carbonyl)-5-oxooctahydro-1H-pyrrolo[1,2-a]azepin-6-yl)carbamoyl)benzo[b]thiophen-5-yl)fluoromethyl)phosphonic acid]: the concentration for half-maximal inhibition (IC50) in assay [1] (setting [3]) is under 0.1 µM; in assay [2] (setting [4]) it was 3 to 30 µM.
On to `COc1ccncc1C1CN(C(=O)[C@@H]2CC[C@@H]3CCC[C@H](NC(=O)c4cc5cc(C(F)P(=O)(O)O)ccc5s4)C(=O)N32)C1` (stereo partly drawn) [Compound 206, (fluoro(2-(((3S,6S,9aS)-3-(3-(4-methoxypyridin-3-yl)azetidine-1-carbonyl)-5-oxooctahydro-1H-pyrrolo[1,2-a]azepin-6-yl)carbamoyl)benzo[b]thiophen-5-yl)methyl)phosphonic acid], for which the results for the concentration for half-maximal inhibition (IC50) in assay [1] (setting [3]) and in assay [2] (setting [4]) were under 0.1 µM and 3 to 30 µM, respectively.
Take `C[C@H]1C[C@H]2CC[C@@H](C(=O)N3CC(c4cnccc4F)C3)N2C(=O)[C@@H](NC(=O)c2cc3cc(C(F)P(=O)(O)O)ccc3s2)C1` (stereo partly drawn) [Compound 207, (fluoro(2-(((3S,6S,8R,9aR)-3-(3-(4-fluoropyridin-3-yl)azetidine-1-carbonyl)-8-methyl-5-oxooctahydro-1H-pyrrolo[1,2-a]azepin-6-yl)carbamoyl)benzo[b]thiophen-5-yl)methyl)phosphonic acid]: the IC50 in assay [1] (setting [3]) was under 0.1 µM; in assay [2] (setting [4]), 3 to 30 µM.
Consider `O=C(N[C@H]1CCC[C@H]2CC[C@@H](C(=O)N3CC(c4cccnc4)C3)N2C1=O)c1cc2nc(CP(=O)(O)O)ccc2s1` [Compound 208, ((2-(((3S,6S,9aS)-5-oxo-3-(3-(pyridin-3-yl)azetidine-1-carbonyl)octahydro-1H-pyrrolo[1,2-a]azepin-6-yl)carbamoyl)thieno[3,2-b]pyridin-5-yl)methyl)phosphonic acid], for which the 50% inhibitory concentration (IC50) was 1 to 10 µM in assay [1] (setting [3]) and 3 to 30 µM in assay [2] (setting [4]).
Take `C[C@@H]1C[C@H]2CC[C@@H](C(=O)N3CC(c4cnccc4F)C3)N2C(=O)[C@@H](NC(=O)c2cc3cc(C(F)P(=O)(O)O)ccc3s2)C1` (stereo partly drawn) [Compound 209, (fluoro(2-(((3S,6S,8S,9aR)-3-(3-(4-fluoropyridin-3-yl)azetidine-1-carbonyl)-8-methyl-5-oxooctahydro-1H-pyrrolo[1,2-a]azepin-6-yl)carbamoyl)benzo[b]thiophen-5-yl)methyl)phosphonic acid]: the half-maximal inhibitory concentration (IC50) was under 0.1 µM in assay [1] (setting [3]) and 0.3 to 3 µM in assay [2] (setting [4]).
For the molecule `CC[C@@H]1CC[C@H](NC(=O)c2cc3cc(C(F)P(=O)(O)O)ccc3s2)C(=O)N2[C@H](CC[C@H]2C(=O)N2CC(c3cnccc3OC)C2)C1` (stereo partly drawn) [Compound 210, ((2-(((3S,6S,9R,10aR)-9-ethyl-3-(3-(4-methoxypyridin-3-yl)azetidine-1-carbonyl)-5-oxodecahydropyrrolo[1,2-a]azocin-6-yl)carbamoyl)benzo[b]thiophen-5-yl)fluoromethyl)phosphonic acid], the IC50 was under 0.1 µM in assay [1] (setting [3]) and 3 to 30 µM in assay [2] (setting [4]).
On to `COc1ccncc1C1CN(C(=O)[C@@H]2CC[C@@H]3C[C@H](C(C)C)CC[C@H](NC(=O)c4cc5cc(C(F)P(=O)(O)O)ccc5s4)C(=O)N32)C1` (stereo partly drawn) [Compound 211, (fluoro(2-(((3S,6S,9R,10aR)-9-isopropyl-3-(3-(4-methoxypyridin-3-yl)azetidine-1-carbonyl)-5-oxodecahydropyrrolo[1,2-a]azocin-6-yl)carbamoyl)benzo[b]thiophen-5-yl)methyl)phosphonic acid], for which the IC50 in assay [1] (setting [3]) is under 0.1 µM; in assay [2] (setting [4]) it was 3 to 30 µM.
The corresponding values for `COC[C@@H]1CCN1c1ccncc1C1CN(C(=O)[C@@H]2CC[C@@H]3CCC[C@H](NC(=O)c4cc5cc(CP(=O)(O)O)ccc5s4)C(=O)N32)C1` [Compound 213, ((2-(((3S,6S,9aS)-3-(3-(4-((S)-2-(methoxymethyl)azetidin-1-yl)pyridin-3-yl)azetidine-1-carbonyl)-5-oxooctahydro-1H-pyrrolo[1,2-a]azepin-6-yl)carbamoyl)benzo[b]thiophen-5-yl)methyl)phosphonic acid] are under 0.1 µM and 3 to 30 µM.
The like results for `Cc1ccncc1C1CN(C(=O)[C@@H]2CC[C@@H]3CCC[C@H](NC(=O)c4cc5cc(CP(=O)(O)O)ccc5s4)C(=O)N32)C1` [Compound 214, ((2-(((3S,6S,9aS)-3-(3-(4-methylpyridin-3-yl)azetidine-1-carbonyl)-5-oxooctahydro-1H-pyrrolo[1,2-a]azepin-6-yl)carbamoyl)benzo[b]thiophen-5-yl)methyl)phosphonic acid] were, in that order, 0.1 to 1 µM and 3 to 30 µM.
The corresponding values for `COC1(c2nccn2C)CN(C(=O)[C@@H]2CC[C@@H]3CCC4(CC4)C[C@H](NC(=O)c4ccc5ccc(C(F)(F)P(=O)(O)O)cc5c4)C(=O)N32)C1` [Compound 215, (difluoro(7-(((3′S,6′S,10a′S)-3′-(3-methoxy-3-(1-methyl-1H-imidazol-2-yl)azetidine-1-carbonyl)-5′-oxooctahydro-5′H-spiro[cyclopropane-1,8′-pyrrolo[1,2-a]azocin]-6′-yl)carbamoyl)naphthalen-2-yl)methyl)phosphonic acid] are 1 to 10 µM and 3 to 30 µM.
For the molecule `O=C(N[C@H]1CC2(CC[C@H]3CC[C@@H](C(=O)N4CC(c5cccnc5)C4)N3C1=O)CC2)c1cc2cc(CP(=O)(O)O)ccc2s1` [Compound 216, ((2-(((3′S,6′S,10a′S)-5′-oxo-3′-(3-(pyridin-3-yl)azetidine-1-carbonyl)octahydro-5′H-spiro[cyclopropane-1,8′-pyrrolo[1,2-a]azocin]-6′-yl)carbamoyl)benzo[b]thiophen-5-yl)methyl)phosphonic acid], the results for the 50% inhibitory concentration (IC50) in assay [1] (setting [3]) and in assay [2] (setting [4]) were 0.1 to 1 µM and 3 to 30 µM, respectively.
The corresponding values for `O=C(N[C@H]1CCCC[C@H]2CC[C@@H](C(=O)N3CCC(c4cccnc4)C3)N2C1=O)c1ccc2ccc(CP(=O)(O)O)cc2c1` (stereo partly drawn) [Compound 217, ((7-(((3S,6S,10aS)-5-oxo-3-(3-(pyridin-3-yl)pyrrolidine-1-carbonyl)decahydropyrrolo[1,2-a]azocin-6-yl)carbamoyl)naphthalen-2-yl)methyl)phosphonic acid] are 1 to 10 µM and 3 to 30 µM.
For `O=C(N[C@H]1CCCC[C@H]2CC[C@@H](C(=O)N3CCC(c4cccnc4)C3)N2C1=O)c1ccc2ccc(C(F)(F)P(=O)(O)O)cc2c1` (stereo partly drawn) [Compound 218, (difluoro(7-(((3S,6S,10aS)-5-oxo-3-(3-(pyridin-3-yl)pyrrolidine-1-carbonyl)decahydropyrrolo[1,2-a]azocin-6-yl)carbamoyl)naphthalen-2-yl)methyl)phosphonic acid], the figures for the IC50 in assay [1] (setting [3]) and in assay [2] (setting [4]) were 0.1 to 1 µM and at most 0.3 µM, respectively.
As for `CC(=O)N1C[C@H](NC(=O)[C@@H]2CC[C@@H]3CCC[C@H](NC(=O)c4cc5cc(CP(=O)(O)O)ccc5s4)C(=O)N32)[C@@H](F)C1` [Compound 219, ((2-(((3S,6S,9aS)-3-(((3S,4S)-1-acetyl-4-fluoropyrrolidin-3-yl)carbamoyl)-5-oxooctahydro-1H-pyrrolo[1,2-a]azepin-6-yl)carbamoyl)benzo[b]thiophen-5-yl)methyl)phosphonic acid], the figures for the half-maximal inhibitory concentration (IC50) in assay [1] (setting [3]) and in assay [2] (setting [4]) were 1 to 10 µM and 3 to 30 µM, respectively.
